According to EP3353259B1, “SILYL MODIFIED POLYMER SEALANT” (Strongbond B.V., priority 2015, dated 2017):

Tests used:
[1] = Cure of MS-kit with 4-dodecylbenzenesulfonic acid (comparative example 1a-b); format: physicochemical
Description: (§1) All ingredients except the Tegokat are added to a Hauschild cup and mixed in a Hauschild mixer for 60 seconds. Than the catalyst is added and mixed for another 30 seconds. Additionally UV- and light stabilizers, pigments etc. may be added in the first or second step.

[2] = Description: as §1
In fig.6 the degradation time in hours at 150°C is plotted versus the time in days prior to cure at 40°C. On the horizontal axis the time the sealant was stored at 40°C before cure in days is given, showing the storage stability of the anti-oxidant, and on the vertical axis the time in hours to degradation at 150°C, showing the effectiveness of the anti-oxidant after storage of the sealant. This test may be seen as a stress test for both storage stability of the sealant as subsequent oxidation stability. The line represents the present situation using Irganox 1135 commonly applied in the sealant.
In fig. 8 a similar test as in fig. 6 is performed with the above mentioned anti-oxidants.
At present samples have been tested of a commercial STP (or SMP) sealant containing Irganox 1035, Irganox 1330 and a mixture thereof. The total antioxidant content of all samples is 4 g/kg STP polymer. The samples are stored in an oven at 40°C. The degradation times are determined at 150°C as a function of storage time. Furthermore, tensile tests are performed directly and after dumbbells used in said tests are exposed to 100°C for 1000 hours. This is done on freshly prepared sealants and sealants that have been stored at 40°C for 4 weeks.

[3] = Oxidation resistance of MS-kit with dodecylsulfide (comparative example 2a-d); format: physicochemical; conditions: up to 5% added to a standard mix with and without Irganox 1135, compared to standard mixture without dodecylsulfide
Description: Up to 5% dodecylsulfide was added to a standard mix with and without Irganox 1135. No change in oxidation resistance was found compared to the standard mixture with or without Irganox 1135 not containing dodecylsulfide.

SMILES	cure ([1]; added instead of a tin-catalyst)	Degradation time after 7 days @ 40°C [2] [h]	Initial degradation Time [2] [h]	Relative decrease degradation time after 7days @ 40°C [2] [%]	oxidation resistance [3]	cure ([1]; after addition of a tin catalyst)
CCCCCCCCCCCCc1ccc(S(=O)(=O)O)cc1 [4-dodecylbenzenesulfonic acid]	no cure was observed					behaved as without 4-dodecylbenzenesulfonic acid
CCCCCCCCSc1nc(Nc2cc(C(C)(C)C)c(O)c(C(C)(C)C)c2)nc(SCCCCCCCC)n1 [Irganox 565]		9	16	56		
CC(C)(C)c1cc(CCC(=O)OCC(COC(=O)CCc2cc(C(C)(C)C)c(O)c(C(C)(C)C)c2)(COC(=O)CCc2cc(C(C)(C)C)c(O)c(C(C)(C)C)c2)COC(=O)CCc2cc(C(C)(C)C)c(O)c(C(C)(C)C)c2)cc(C(C)(C)C)c1O [Irganox 1010]		3	24	13		
Cc1cc(CCC(=O)OCCOCCOCCOC(=O)CCc2cc(C)c(O)c(C(C)(C)C)c2)cc(C(C)(C)C)c1O [Irganox 245]		2	9	22		

Now from value to compound, other results behind:

cure ([1]; added instead of a tin-catalyst)	Degradation time after 7 days @ 40°C [2] [h]	Initial degradation Time [2] [h]	Relative decrease degradation time after 7days @ 40°C [2] [%]	oxidation resistance [3]	SMILES	cure ([1]; after addition of a tin catalyst)
	2	16	13		CC(C)(C)c1cc(CCC(=O)OCCSCCOC(=O)CCc2cc(C(C)(C)C)c(O)c(C(C)(C)C)c2)cc(C(C)(C)C)c1O [Irganox 1035]	
				No change	CCCCCCCCCCCCSCCCCCCCCCCCC [dodecylsulfide]	
	21	34	62		Cc1c(Cc2cc(C(C)(C)C)c(O)c(C(C)(C)C)c2)c(C)c(Cc2cc(C(C)(C)C)c(O)c(C(C)(C)C)c2)c(C)c1Cc1cc(C(C)(C)C)c(O)c(C(C)(C)C)c1 [Irganox 1330]	
